Source: ChEMBL document CHEMBL1201862, “PubChem BioAssay data set” (2004)
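Five concentrations, 48 hours, 96-well plates. GI50 = concentration required for 50% inhibition of growth.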 Active and inactive are the calls of the source. Cut-off read from the data, not from the text of the source: active = GI50 up to about 1.1 µM and inactive = higher.

Tests used:
Assay in all cases: NCI anticancer screen, dose series, 48 h
[1] = test system: A549
[2] = test system: MDA-N
[3] = test system: UACC-257
[4] = test system: HOP-92
[5] = test system: HT-29
[6] = test system: PC-3
[7] = test system: Hs-578T
[8] = test system: OVCAR-4
[9] = test system: NCI-H460
[10] = test system: UACC-62
[11] = test system: OVCAR-5
[12] = test system: CAKI-1
[13] = test system: SNB-75
[14] = test system: Malme-3M
[15] = test system: CCRF-CEM
[16] = test system: T47D
[17] = test system: SF-539
[18] = test system: NCI/ADR-RES
[19] = test system: MDA-MB-231
[20] = test system: IGROV-1
[21] = test system: MOLT-4
[22] = test system: A498
[23] = test system: NCI-H522
[24] = test system: ACHN
[25] = test system: SNB-19
[26] = test system: RXF 393
[27] = test system: KM12
[28] = test system: SK-MEL-5
[29] = test system: 786-0
[30] = test system: SW-620
[31] = test system: COLO 205
[32] = test system: DU-145
[33] = test system: HCT-15
[34] = test system: SK-MEL-28
[35] = test system: SF-295
[36] = test system: SN12C
[37] = test system: LOX IMVI
[38] = test system: NCI-H23
[39] = test system: SF-268
[40] = test system: EKVX
[41] = test system: SK-OV-3
[42] = test system: NCI-H226
[43] = test system: UO-31
[44] = test system: MCF7
[45] = test system: U-251
[46] = test system: TK-10
[47] = test system: HOP-62
[48] = test system: M14
[49] = test system: MDA-MB-435
[50] = test system: HCT-116
[51] = test system: SK-MEL-2
[52] = test system: OVCAR-8
[53] = test system: K562
[54] = test system: HCC 2998
[55] = test system: RPMI-8226
[56] = test system: OVCAR-3
[57] = test system: HL-60
[58] = test system: BT-549

In the case of `C=C(CC(=O)Nc1ccc(C(=O)OC)o1)C(=O)OC`, the GI50 [1] is reported as 18.2 µM (inactive), the GI50 [2] is reported as > 10 µM (inactive) and the GI50 [3] is reported as 21.3 µM (inactive). For the same molecule, the GI50 [4] was 29.4 µM (inactive), the GI50 [5] was 26.5 µM (inactive) and the GI50 [6] was 23.6 µM (inactive). The GI50 [7] was 53.1 µM (inactive), the GI50 [8] was 30.7 µM (inactive) and the GI50 [9] was 29.9 µM (inactive). For the same molecule, the GI50 [10] was 25.4 µM (inactive), the GI50 [11] was 17.1 µM (inactive) and the GI50 [12] was 24.5 µM (inactive). The GI50 [13] was 32.4 µM (inactive), the GI50 [14] was 19.7 µM (inactive) and the GI50 [15] was > 10 µM (inactive). The GI50 [16] was 23.2 µM (inactive), the GI50 [17] was 17.3 µM (inactive) and the GI50 [18] was 41.3 µM (inactive). For the same molecule, the GI50 [19] was 27.7 µM (inactive), the GI50 [20] was 23 µM (inactive) and the GI50 [21] was 18.8 µM (inactive). The GI50 [22] was 42.8 µM (inactive), the GI50 [23] was 19.9 µM (inactive) and the GI50 [24] was 18.7 µM (inactive). For the same molecule, the GI50 [25] was 25.3 µM (inactive), the GI50 [26] was 18.5 µM (inactive) and the GI50 [27] was 19.9 µM (inactive). The GI50 [28] was 18.5 µM (inactive), the GI50 [29] was 19.7 µM (inactive) and the GI50 [30] was 22 µM (inactive). For the same molecule, the GI50 [31] was 19.6 µM (inactive), the GI50 [32] was 31.9 µM (inactive) and the GI50 [33] was 24.7 µM. For the same molecule, the GI50 [34] was 23 µM (inactive), the GI50 [35] was 34.5 µM (inactive) and the GI50 [36] was 24.9 µM (inactive). For the same molecule, the GI50 [37] was 30.8 µM (inactive), the GI50 [38] was 28 µM (inactive) and the GI50 [39] was 36.6 µM (inactive). The GI50 [40] was 21.8 µM (inactive), the GI50 [41] was 28.7 µM (inactive) and the GI50 [42] was 26.5 µM (inactive). The GI50 [43] was 20.6 µM (inactive), the GI50 [44] was 17.9 µM (inactive) and the GI50 [45] was 35 µM (inactive). The GI50 [46] was 20.8 µM (inactive), the GI50 [47] was 73.3 µM (inactive) and the GI50 [48] was 19.1 µM (inactive). For the same molecule, the GI50 [49] was 17.8 µM (inactive), the GI50 [50] was 29.4 µM (inactive) and the GI50 [51] was 20.7 µM (inactive). For the same molecule, the GI50 [52] was 36.9 µM (inactive).
`COc1ccc2c(ccc3c(C(=O)NCCCN(C)CCCNC(=O)c4cn(C)c5c4ccc4cc(OC)ccc45)cn(C)c32)c1` was tested, and the GI50 [1] was 1.43 µM (inactive), the GI50 [2] was 1.53 µM (inactive) and the GI50 [53] was 0.403 µM (active). For the same molecule, the GI50 [3] was 1.57 µM (inactive), the GI50 [6] was 1.55 µM (inactive) and the GI50 [54] was 1.61 µM (inactive). For the same molecule, the GI50 [7] was 2.33 µM (inactive), the GI50 [8] was 1.71 µM (inactive) and the GI50 [9] was 1.47 µM (inactive). For the same molecule, the GI50 [10] was 1.77 µM (inactive), the GI50 [12] was 1.64 µM (inactive) and the GI50 [15] was 1.07 µM (active). The GI50 [20] was 1.53 µM (inactive), the GI50 [21] was 2.23 µM (inactive) and the GI50 [22] was 28.6 µM (inactive). For the same molecule, the GI50 [24] was 1.66 µM (inactive), the GI50 [25] was 1.79 µM (inactive) and the GI50 [26] was 2.12 µM (inactive). The GI50 [27] was 1.56 µM (inactive), the GI50 [28] was 1.9 µM (inactive) and the GI50 [29] was 1.49 µM (inactive). For the same molecule, the GI50 [30] was 1.83 µM (inactive), the GI50 [31] was 2.11 µM (inactive) and the GI50 [32] was 1.67 µM (inactive). For the same molecule, the GI50 [33] was 1.32 µM, the GI50 [34] was 1.77 µM (inactive) and the GI50 [35] was 2.15 µM (inactive). For the same molecule, the GI50 [36] was 1.57 µM (inactive), the GI50 [37] was 2.26 µM (inactive) and the GI50 [38] was 1.58 µM (inactive). The GI50 [39] was 1.78 µM (inactive), the GI50 [40] was 1.57 µM (inactive) and the GI50 [43] was 1.66 µM (inactive). For the same molecule, the GI50 [45] was 1.92 µM (inactive), the GI50 [55] was 2.35 µM (inactive) and the GI50 [48] was 1.59 µM (inactive). For the same molecule, the GI50 [49] was 1.89 µM (inactive) and the GI50 [50] was 1.73 µM (inactive).
In the case of `CC1CSc2nc3nc(S)nc-3c(O)n2C1` (stereo not given), the GI50 [1] is reported as > 100 µM (inactive), the GI50 [53] is reported as > 100 µM (inactive) and the GI50 [3] is reported as > 100 µM (inactive). The GI50 [56] was > 100 µM (inactive), the GI50 [54] was > 100 µM (inactive) and the GI50 [8] was > 100 µM (inactive). The GI50 [9] was > 100 µM (inactive), the GI50 [10] was > 100 µM (inactive) and the GI50 [11] was > 100 µM (inactive). For the same molecule, the GI50 [12] was > 100 µM (inactive), the GI50 [13] was > 100 µM (inactive) and the GI50 [14] was > 100 µM (inactive). For the same molecule, the GI50 [15] was > 100 µM (inactive), the GI50 [16] was > 100 µM (inactive) and the GI50 [17] was > 100 µM (inactive). For the same molecule, the GI50 [18] was > 100 µM (inactive), the GI50 [19] was > 100 µM (inactive) and the GI50 [20] was > 100 µM (inactive). The GI50 [21] was > 100 µM (inactive), the GI50 [22] was > 100 µM (inactive) and the GI50 [24] was > 100 µM (inactive). For the same molecule, the GI50 [25] was > 100 µM (inactive), the GI50 [26] was > 100 µM (inactive) and the GI50 [27] was > 100 µM (inactive). The GI50 [28] was > 100 µM (inactive), the GI50 [57] was > 100 µM (inactive) and the GI50 [29] was > 100 µM (inactive). The GI50 [30] was > 100 µM (inactive), the GI50 [31] was > 100 µM (inactive) and the GI50 [32] was > 100 µM (inactive). For the same molecule, the GI50 [33] was > 100 µM, the GI50 [34] was > 100 µM (inactive) and the GI50 [35] was > 100 µM (inactive). For the same molecule, the GI50 [36] was > 100 µM (inactive), the GI50 [37] was > 100 µM (inactive) and the GI50 [38] was > 100 µM (inactive). The GI50 [39] was > 100 µM (inactive), the GI50 [40] was > 100 µM (inactive) and the GI50 [41] was > 100 µM (inactive). For the same molecule, the GI50 [42] was > 100 µM (inactive), the GI50 [43] was > 100 µM (inactive) and the GI50 [58] was > 100 µM (inactive). For the same molecule, the GI50 [44] was > 100 µM (inactive), the GI50 [45] was > 100 µM (inactive) and the GI50 [46] was > 100 µM (inactive). The GI50 [55] was > 100 µM (inactive), the GI50 [47] was > 100 µM (inactive) and the GI50 [49] was > 100 µM (inactive). The GI50 [50] was > 100 µM (inactive) and the GI50 [52] was > 100 µM (inactive).
